Results: patent US20240024262A1, “USE OF VALERIC ACID IN PREPARATION OF DRUG FOR PREVENTING AND TREATING DIABETES” (Harbin Medical University, priority 2022, published 2024)

How the values were obtained:
Beta-TC-6 cells [1] = experiment: EdU-488 cell proliferation test; assay type: cell-based, mouse; conditions: PA alone, or SV 1 mmol/L after PA compared with PA group
Text: (§1) During the cell testing phase of this example, a cell line of mouse insulinoma islet β cells (Beta-TC-6) and mouse primary islet β cells were purchased from Wuhan Prosser Life Technology Co., Ltd for carrying out relevant experimental researches.
(§2) A cell Counting Kit 8 (CCK-8) is a convenient and reliable method to detect the cell activity. In this example, a BeyoClick™ EdU-488 kit is further used to detect the proliferation level of the cells. EdU (5-ethynyl-2′-deoxyuridine) is a thymidine analog that may replace T to infiltrate replicated DNA molecules in the process of cell proliferation. The replication activity of DNA was detected by specific reaction of EdU and an Apollo® Fluor 488 fluorescent dye, an EdU label was correctly detected, and then proliferation of cells was reflected. In this example, expression of Ki-67 in the cells was detected by immunofluorescence (immunocytochemistry), and apoptosis was analyzed by referring to a one-step TUNEL cell apoptosis detection kit (red fluorescence). Meanwhile, this example used a flow cytometry technology to complete detection of a cell cycle and apoptosis.
(§3) The following drugs are taken as comparative examples: • 1. […]

[2] = system: mouse primary islet β cells; experiment: EdU-488 cell proliferation test; assay type: cell-based; conditions: PA alone, or SV 1 mmol/L after PA compared with PA group
Text: as §1, §2, §3

Beta-TC-6 cell line [3] = experiment: TUNEL cell apoptosis detection test; assay type: cell-based, mouse; conditions: PA intervention, then SV intervention
Text: as §1, §2

[4] = system: mouse primary islet β cells; experiment: TUNEL cell apoptosis detection test; assay type: cell-based; conditions: PA intervention, then SV intervention
Text: as §1, §2

Beta-TC-6 cells [5] = experiment: Flow cytometry apoptosis analysis; assay type: cell-based, mouse; conditions: Beta-TC-6, flow cytometry; PA intervention, then SV intervention
Text: as §2
Sodium valerate SV can weaken PA induced apoptosis to a certain extent (FIG. 17).

Beta-TC-6 cell line [6] = experiment: Insulin secretion ability test; assay type: cell-based, mouse; conditions: for secretion levels of the insulin stimulated under a high glucose environment: high sugar (20 mmol/L), after PA intervention
Text: (§4) Through an insulin secretion ability test, the levels of the insulin produced in each group under concentrations of no sugar, low sugar (2.8 mmol/L) and high sugar (20 mmol/L) are compared.

[7] = system: mouse primary islet β cells; experiment: Insulin secretion ability test; assay type: cell-based; conditions: for secretion levels of the insulin stimulated under a high glucose environment: high sugar (20 mmol/L), after PA intervention
Text: as §4

[8] = system: Leptin receptor gene deficient db/db mice; experiment: Type 2 diabetes model db/db mice: food intake, body weight, blood glucose-related indexes; assay type: in vivo; conditions: comparison among groups / vs PBS control group
Experimental: The following drugs are taken as comparative examples: • 1. Comparative example where an existing drug serves as a positive control • (1) High-fat fed C57BL6/J mice • Sodium butyrate gavage intervention group: 75.0 mg/kg • (2) Type 2 diabetes model db/db mice • Sodium butyrate gavage intervention group: 75.0 mg/kg • Harmine gavage intervention group: 10.0 mg/kg • Metformin gavage intervention group: 100.0 mg/kg • (3) Cell line of mouse insulinoma islet β cells (Beta-TC-6) • Sodium butyrate intervention group: 1.0 mmol/L • Harmine intervention group: 10.0 μmmol/L • (4) Mouse islet β primary cell • Sodium butyrate intervention group: 1.0 mmol/L • Harmine intervention group: 10.0 μmmol/L • 2. A control test is taken as a comparative example • (1) High-fat fed C57BL6/J mice • Ordinary feed feeding group, and high-fat feed PBS gavage group • (2) Type 2 diabetes model db/db mice • Control feeding group and PBS gavage group • (3) Cell line of mouse insulinoma islet β cells (Beta-TC-6) • Blank control group, and palmitic acid (PA) intervention negative control group • (4) Mouse islet β primary cell • Blank control group, and PA intervention negative control group • Results are as follows:
(II) In the animal test, the therapeutic effect of the valeric acid on diabetes is observed by using Leptin receptor gene deficient db/db mice (purchased from Nanjing Junke Biotechnology Co., Ltd.) as test subjects.

| SMILES | proportion of EdU (+) cells (Beta-TC-6 cells [1]) | proportion of EdU (+) cells [2] | proportion of apoptotic cells (TUNEL) (Beta-TC-6 cell line [3]) | proportion of apoptotic cells (TUNEL) [4] | proportion of apoptotic cells, Q2 quadrant (late apoptosis) and Q3 quadrant (early apoptosis) (Beta-TC-6 cells [5]) | secretion ability of the insulin (Beta-TC-6 cell line [6]; PA intervention) | secretion ability of the insulin ([7]; PA intervention) | secretion levels of the insulin stimulated under a high glucose environment (Beta-TC-6 cell line [6]) | secretion levels of the insulin stimulated under a high glucose environment [7] | insulin secretion [8] | secretion levels of the insulin stimulated under a high glucose environment (Beta-TC-6 cell line [6]; listed as SV) | secretion levels of the insulin stimulated under a high glucose environment ([7]; listed as SV) |
| --- | --- | --- | --- | --- | --- | --- | --- | --- | --- | --- | --- | --- |
| CCCCCCCCCCCCCCCC(=O)O [PA, palmitic acid, reference compound] | decreased significantly | decreased significantly | increased significantly | increased significantly | increased significantly | decreased significantly | decreased significantly |  |  |  |  |  |
| CCCC(=O)[O-].[Na+] [Sb, sodium butyrate] |  |  |  |  |  |  |  | significantly increased | significantly increased |  |  |  |
| CN(C)C(=N)N=C(N)N [metformin, reference compound] |  |  |  |  |  |  |  |  |  | basically no difference |  |  |
| COc1ccc2c(c1)[nH]c1c(C)nccc12 [Harmine] |  |  |  |  |  |  |  | significantly increased | significantly increased |  |  |  |
| CCCCC(=O)[O-].[Na+] [sodium valerate] | increased significantly | increased significantly | slightly decreased | slightly decreased | decreased significantly |  |  | more significant | more significant |  | significantly increased | significantly increased |
